In patent US12291508B2, “Hydrazide containing nuclear transport modulators and uses thereof” (Karyopharm Therapeutics Inc., priority 2011, dated 2025):
Structures can show the parent of a compound that is named as a salt.

What was measured:
[1] = system: MM.1S multiple myeloma cell line; assay: CellTiter 96 AQueous One Solution cell proliferation assay, MM.1S; type: cell-based; settings: Homo sapiens, MM1.S, 72 h of treatment, read-out: Cytotoxicity Assay
Description: The CellTiter 96® AQueous One Solution cell proliferation assay (Promega) was used on MM.1S multiple myeloma cell line to study the cytotoxic and cytostatic properties of the compounds. The assay is based on the cleavage of the tetrazolium salt, MTS, in the presence of an electron-coupling reagent PES (phenazine ethosulfate). The MTS tetrazolium compound is bioreduced by cells into a colored formazan product that is soluble in tissue culture medium. This conversion is presumably accomplished by NADPH or NADH produced by dehydrogenase enzymes in metabolically active cells. Assays are performed by adding a small amount of the CellTiter 96® AQueous One solution reagent directly to culture wells, incubating for 1-4 hours and then recording the absorbance at 490 nm with a 96-well plate reader.
The cells were seeded at 5×10^3 to 1.5×10^4 cells in each well of a 96-well plate in 100 μL of fresh culture medium and adherent cells were allowed to attach overnight. The stock solutions of the compounds were diluted in cell culture medium to obtain eight concentrations of each drug, ranging from 1 nM to 30 μM and DMSO at less than 1% v/v was used as a negative control. The resulting drug solutions were transferred onto the cells. After 72 h of treatment, 20 μl of CellTiter 96® AQueous reagent was added into each well of the 96-well assay plates and the plate was incubated at 37° C. for 1-4 hours in a humidified, 5% CO2 atmosphere. Then the absorbance of each well was recorded at 490 nm using a 96-well plate reader. In most cases, the assay was performed in triplicate and the results were presented as half maximal inhibitory concentration (IC50). Optical density versus compound concentration was plotted and analyzed using non-linear regression equations (IDBS XLfit) and the IC50 for each compound was calculated.

[2] = molecular target: T1, CRM1-mediated nuclear export (Homo sapiens, UniProt O14980); assay: RevGFP assay, inhibition of nuclear export; type: cell-based; settings: U2OS-RevGFP cells, about 1 hr incubation; read-out: Rev Export
T1 construct: endogenous in cells; host or cells: U2OS-RevGFP cells
Method: The ability of exemplary compounds of the invention to inhibit CRM1-mediated nuclear export was assessed in a RevGFP assay. Rev is a protein from human immunodeficiency virus type 1 (HIV-1) and contains a nuclear export signal (NES) in its C-terminal domain and a nuclear localization signal (NLS) in its N-terminal domain. Nuclear export of Rev protein is dependent on the classical NES/CRM1 pathway (Neville et al. 1997).
In this assay, U2OS-RevGFP cells were seeded onto clear-bottomed, black, 384-well plates the day before the experiment. Compounds were serially diluted 1:2 in DMEM, starting from 40 μM in a separate, 384-well plate, and then transferred onto the cells. The cells were incubated with compound for about 1 hr before fixation with 3.7% formaldehyde and nuclei staining with Hoechst 33258. The amount of GFP in cell nuclei was measured and the IC50 of each compound was determined (Kau et al. 2003).

[3] = Pharmacokinetic (PK) assay, plasma AUC in mice; type: in vivo; settings: 10 mg/kg po; for AUC(0-inf): mouse, plasma
Method: AUC. Blood was collected from mice (N=3) to contribute to the total of 10 time points (pre-dose, 5 min, 15 min, 30 min, 1 hour, 2 hours, 4 hours, 8 hours, 12 hours and 24 hours post dose). Mice were bled on a rotating basis, each mouse contributing 3 time points to the blood collection. At the designated time points, animals were anaesthetized under isoflurane, and approximately 110 μL of blood per time point was collected via retro-orbital puncture into pre-cooled K2EDTA (anti-coagulant) tubes. Blood samples were put on wet ice and centrifuged (2000 g, 5 min at 4° C.) to obtain plasma within 30 minutes of sample collection. All samples were stored frozen at approximately −80° C. until analysis. Prior to analysis, samples were mixed with internal standard (dexamethasone) in acetonitrile, vortexed, centrifuged, and supernatant was injected for analysis. Concentration of compounds in plasma was determined using LC-MS-MS instrumentation (API 4000, Triple Quadruple with electrospray ionization; Acuity Ultra Performance Liquid Chromatography column C18, with MeOH and formic acid as organic solvents). AUC values were calculated using WinNonlin Professional 6.2 software package, non-compartmental pharmacokinetic model NCA200.

[4] = Brain to Plasma (B:P) ratio in mice; type: in vivo; settings: 10 mg/kg po, 2 hours post-dose; for Kp at 2 h: mouse, brain/plasma
Method: Brain to Plasma (B:P) Ratio. […] Following collection, brain tissue was rinsed with cold saline, dried on filter paper, weighed and snap-frozen by placing on dry ice. All samples were stored frozen at approximately −80° C. until analysis. […] Plasma samples were treated with the identical method (except homogenization step) and the concentration of compound in each matrix was calculated based on generated standard curves.

T1 sequence (O14980 whole entry): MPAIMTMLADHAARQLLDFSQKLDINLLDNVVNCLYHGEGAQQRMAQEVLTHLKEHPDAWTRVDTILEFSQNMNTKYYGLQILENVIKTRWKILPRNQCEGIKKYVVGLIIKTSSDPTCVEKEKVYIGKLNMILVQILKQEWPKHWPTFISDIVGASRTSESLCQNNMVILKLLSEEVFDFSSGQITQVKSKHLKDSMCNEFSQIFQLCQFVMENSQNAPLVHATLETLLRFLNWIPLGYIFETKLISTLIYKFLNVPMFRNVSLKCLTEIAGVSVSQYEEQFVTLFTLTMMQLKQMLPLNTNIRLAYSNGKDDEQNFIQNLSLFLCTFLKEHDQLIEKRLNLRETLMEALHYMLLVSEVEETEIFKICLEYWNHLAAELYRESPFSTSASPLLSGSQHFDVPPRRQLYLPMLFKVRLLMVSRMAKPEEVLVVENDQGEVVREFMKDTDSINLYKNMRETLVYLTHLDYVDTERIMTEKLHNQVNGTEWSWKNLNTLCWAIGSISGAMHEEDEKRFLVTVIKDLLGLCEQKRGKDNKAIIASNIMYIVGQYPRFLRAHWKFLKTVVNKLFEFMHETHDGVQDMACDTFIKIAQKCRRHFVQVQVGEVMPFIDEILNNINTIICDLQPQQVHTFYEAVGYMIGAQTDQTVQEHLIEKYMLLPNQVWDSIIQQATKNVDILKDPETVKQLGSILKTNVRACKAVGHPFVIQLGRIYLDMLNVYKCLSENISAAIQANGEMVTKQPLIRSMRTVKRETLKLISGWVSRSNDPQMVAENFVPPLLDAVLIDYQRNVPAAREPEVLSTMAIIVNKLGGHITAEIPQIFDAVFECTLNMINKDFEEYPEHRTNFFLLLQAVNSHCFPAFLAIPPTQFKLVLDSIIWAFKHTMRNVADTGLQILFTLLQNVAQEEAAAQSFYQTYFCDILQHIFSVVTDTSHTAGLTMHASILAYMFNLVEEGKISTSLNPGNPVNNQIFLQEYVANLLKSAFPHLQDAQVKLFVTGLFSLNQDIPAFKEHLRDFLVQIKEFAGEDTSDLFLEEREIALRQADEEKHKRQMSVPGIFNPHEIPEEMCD

SMILES	IC50 [1]	also measured
O=C(/C=C\n1cnc(-c2cc(C(F)(F)F)cc(C(F)(F)F)c2)n1)NN1CCCC1 [Compound I-6, (Z)-3-(3-(3,5-bis(trifluoromethyl)phenyl)-1H-1,2,4-triazol-1-yl)-N-(pyrrolidin-1-yl)acrylamide]	≤ 1 µM	
CN(NC(=O)/C=C\n1cnc(-c2cc(C(F)(F)F)cc(C(F)(F)F)c2)n1)c1ccccn1 [Compound I-7, (Z)-3-(3-(3,5-bis(trifluoromethyl)phenyl)-1H-1,2,4-triazol-1-yl)-N‘-methyl-N’-(pyridin-2-yl)acrylohydrazide]	≤ 1 µM	IC50 [2]: ≤ 1 µM; AUC(0-inf) [3]: 12200 ng·h/mL; Kp at 2 h [4]: 1.5
CN(NC(=O)/C=C\n1cnc(-c2cc(C(F)(F)F)cc(C(F)(F)F)c2)n1)c1cnccn1 [Compound I-8, (Z)-3-(3-(3,5-bis(trifluoromethyl)phenyl)-1H-1,2,4-triazol-1-yl)-N′-methyl-N′-(pyrazin-2-yl)acrylohydrazide]	≤ 1 µM	IC50 [2]: ≤ 1 µM; AUC(0-inf) [3]: 4600 ng·h/mL; Kp at 2 h [4]: 2.1
Cc1cccnc1N(C)NC(=O)/C=C\n1cnc(-c2cc(C(F)(F)F)cc(C(F)(F)F)c2)n1 [Compound I-9, (Z)-3-(3-(3,5-bis(trifluoromethyl)phenyl)-1H-1,2,4-triazol-1-yl)-N′-methyl-N′-(3-methylpyridin-2-yl)acrylohydrazide]	≤ 1 µM	
Cc1ccc(NNC(=O)/C=C\n2cnc(-c3cc(C(F)(F)F)cc(C(F)(F)F)c3)n2)nc1 [Compound I-10, (Z)-3-(3-(3,5-bis(trifluoromethyl)phenyl)-1H-1,2,4-triazol-1-yl)-N′-(5-methylpyridin-2-yl)acrylohydrazide]	≤ 1 µM	AUC(0-inf) [3]: 4170 ng·h/mL; Kp at 2 h [4]: 0.77
CN(NC(=O)/C=C\n1cnc(-c2cc(C(F)(F)F)cc(C(F)(F)F)c2)n1)c1cccnc1 [Compound I-11, (Z)-3-(3-(3,5-bis(trifluoromethyl)phenyl)-1H-1,2,4-triazol-1-yl)-N′-methyl-N′-(pyridin-3-yl)acrylohydrazide]	≤ 1 µM	
O=C(/C=C\n1cnc(-c2cc(C(F)(F)F)cc(C(F)(F)F)c2)n1)NNc1cccnc1 [Compound I-13, (Z)-3-(3-(3,5-bis(trifluoromethyl)phenyl)-1H-1,2,4-triazol-1-yl)-N′-(pyridin-3-yl)acrylohydrazide]	≤ 1 µM	
O=C(/C=C\n1cnc(-c2cc(C(F)(F)F)cc(C(F)(F)F)c2)n1)NNc1cnc2ccccc2n1 [Compound I-14, (Z)-3-(3-(3,5-bis(trifluoromethyl)phenyl)-1H-1,2,4-triazol-1-yl)-N′-(quinoxalin-2-yl)acrylohydrazide]	≤ 1 µM	
O=C(/C=C\n1cnc(-c2cc(C(F)(F)F)cc(C(F)(F)F)c2)n1)NNC1CCS(=O)(=O)C1 (centres unmarked) [Compound I-15, (Z)-3-(3-(3,5-bis(trifluoromethyl)phenyl)-1H-1,2,4-triazol-1-yl)-N′-(1,1-dioxotetrahydrothiophen-3yl)acrylohydrazide]	≤ 1 µM	
O=C(/C=C\n1cnc(-c2cc(C(F)(F)F)cc(C(F)(F)F)c2)n1)NN1CCCCCC1 [Compound I-16, (Z)—N-(azepan-1-yl)-3-(3-(3,5-bis(trifluoromethyl)phenyl)-1H-1,2,4-triazol-1-yl)acrylamide]	≤ 1 µM	
Cc1cc(NNC(=O)/C=C\n2cnc(-c3cc(C(F)(F)F)cc(C(F)(F)F)c3)n2)nc(C)n1 [Compound I-17, (Z)-3-(3-(3,5-bis(trifluoromethyl)phenyl)-1H-1,2,4-triazol-1-yl)-N′-(2,6-dimethylpyrimidin-4-yl)acrylohydrazide]	≤ 1 µM	
O=C(/C=C/n1cnc(-c2cc(C(F)(F)F)cc(C(F)(F)F)c2)n1)NNc1cnccn1 [Compound I-18, (E)-3-(3-(3,5-bis(trifluoromethyl)phenyl)-1H-1,2,4-triazol-1-yl)-N′-(pyrazin-2-yl) acrylohydrazide]	≤ 1 µM	AUC(0-inf) [3]: 7140 ng·h/mL
O=C(/C=C\n1cnc(-c2cc(C(F)(F)F)cc(C(F)(F)F)c2)n1)NNc1ccncc1 [Compound I-19, (Z)-3-(3-(3,5-bis(trifluoromethyl)phenyl)-1H-1,2,4-triazol-1-yl)-N′-(pyridin-4-yl) acrylohydrazide hydrochloride]	≤ 1 µM	AUC(0-inf) [3]: 4020 ng·h/mL; Kp at 2 h [4]: 0.2
O=C(/C=C\n1cnc(-c2cc(C(F)(F)F)cc(C(F)(F)F)c2)n1)NN1CCN(Cc2ccccc2)CC1 [Compound I-20, (Z)-N-(4-benzylpiperazin-1-yl)-3-(3-(3,5-bis(trifluoromethyl)phenyl)-1H-1,2,4-triazol-1-yl) acrylamide]	≤ 1 µM	
CCN1CCN(NC(=O)/C=C\n2cnc(-c3cc(C(F)(F)F)cc(C(F)(F)F)c3)n2)CC1 [Compound I-21, (Z)-3-(3-(3,5-bis(trifluoromethyl)phenyl)-1H-1,2,4-triazol-1-yl)-N-(4-ethylpiperazin-1-yl)acrylamide]	≤ 1 µM	
O=C(/C=C\n1cnc(-c2cc(C(F)(F)F)cc(C(F)(F)F)c2)n1)NN1CCOCC1 [Compound I-22, (Z)-3-(3-(3,5-bis(trifluoromethyl)phenyl)-1H-1,2,4-triazol-1-yl)-N-morpholinoacrylamide]	≤ 1 µM	
O=C(/C=C\n1cnc(-c2cc(C(F)(F)F)cc(C(F)(F)F)c2)n1)NNc1ccncn1 [Compound I-23, (Z)-3-(3-(3,5-bis(trifluoromethyl)phenyl)-1H-1,2,4-triazol-1-yl)-N′-(pyrimidin-4-yl)acrylohydrazide]	≤ 1 µM	
O=C(/C=C\n1cnc(-c2cc(C(F)(F)F)c(Cl)c(C(F)(F)F)c2)n1)NNc1cnccn1 [Compound I-24, (Z)-3-(3-(4-chloro-3,5-bis(trifluoromethyl)phenyl)-1H-1,2,4-triazol-1-yl)-N′-(pyrazin-2-yl)acrylohydrazide]	≤ 1 µM	AUC(0-inf) [3]: 3350 ng·h/mL; Kp at 2 h [4]: 0.7
O=C(/C=C\n1cnc(-c2cc(C(F)(F)F)cc(C(F)(F)F)c2)n1)NNC1CC1 [Compound I-25, (Z)-3-(3-(3,5-bis(trifluoromethyl)phenyl)-1H-1,2,4-triazol-1-yl)-N′-cyclopropylacrylohydrazide]	≤ 1 µM	
O=C(/C=C\n1cnc(-c2cc(C(F)(F)F)cc(C(F)(F)F)c2)n1)NN1CC(O)C1 [Compound I-26, (Z)-3-(3-(3,5-bis(trifluoromethyl)phenyl)-1H-1,2,4-triazol-1-yl)-N-(3-hydroxyazetidin-1-yl)acrylamide]	≤ 1 µM	
COc1cc(-c2ncn(/C=C\C(=O)OC(C)C)n2)cc(C(F)(F)F)c1 [Compound X-1, reference compound]	≤ 1 µM	IC50 [2]: ≤ 1 µM; AUCInf ([3]; 10 mg/kg): below the limit of detection
CC(C)OC(=O)/C=C\n1cnc(-c2cc(OC(C)C)cc(C(F)(F)F)c2)n1 [Compound X-2, reference compound]	≤ 1 µM	IC50 [2]: ≤ 1 µM
O=C(/C=C\n1cnc(-c2cc(C(F)(F)F)cc(C(F)(F)F)c2)n1)N1CC(F)(F)C1 [Compound X-3, reference compound]	≤ 1 µM	IC50 [2]: ≤ 1 µM; B:P [4]: 5.0
